Source: BindingDB's records for patent WO2024074497 (Forx Therapeutics, 2024)

Biological target: T1, Poly(ADP-ribose) glycohydrolase [448-976,L473S,N479S,S802A,R811K,M841I,S858P,I916T,T924D,D927K,C963S,A967T] (UniProt Q86W56, A967T/C963S/D927K/I916T/L473S/M841I/N479S/R811K/S802A/S858P/T924D)
T1 construct: 448-976
Assay: PARG enzymatic IC50 assay
Description: PARG enzyme as incubated with compound or vehicle (DMSO) for 15 minutes or 2 hours in a 384 well plate. After adding the PARG substrate ADP-ribose-pNP, the plate was read for absorbance intensity at 405 nm. The vehicle (DMSO) with high absorbance intensity represents no inhibition of enzymatic reaction while the low control (no enzyme) with low absorbance intensity represents full inhibition of enzymatic reaction.

T1 sequence (Q86W56 448-976 L473S/N479S/S802A/R811K/M841I/S858P/I916T/T924D/D927K/C963S/A967T): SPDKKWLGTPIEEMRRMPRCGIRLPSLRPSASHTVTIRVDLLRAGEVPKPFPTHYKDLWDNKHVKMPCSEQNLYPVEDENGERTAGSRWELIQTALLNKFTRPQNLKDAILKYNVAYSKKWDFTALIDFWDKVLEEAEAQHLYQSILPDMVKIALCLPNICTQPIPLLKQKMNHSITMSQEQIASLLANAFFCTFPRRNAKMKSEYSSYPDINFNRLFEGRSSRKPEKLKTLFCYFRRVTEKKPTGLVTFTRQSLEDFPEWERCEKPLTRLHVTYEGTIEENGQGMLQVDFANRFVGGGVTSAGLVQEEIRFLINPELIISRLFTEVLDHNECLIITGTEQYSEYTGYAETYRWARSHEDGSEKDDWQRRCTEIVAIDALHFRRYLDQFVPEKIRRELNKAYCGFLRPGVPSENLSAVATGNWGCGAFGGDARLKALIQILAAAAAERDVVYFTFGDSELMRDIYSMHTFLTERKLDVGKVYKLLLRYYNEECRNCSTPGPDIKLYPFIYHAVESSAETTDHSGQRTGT

IC50: 110 nM
Structure (SMILES): C[C@H]1CN(c2cc(S(=O)(=O)NC3(C)CC3)cn3c(-c4nnc(C(F)F)s4)ncc23)C[C@H](C)N1 [WO2024074497, Example 1]
